Experimental data as given in patent US12036196B2, “Compositions and methods for the sustained release of beta-alanine” (Natural Alternatives International, Inc., priority 2005, dated 2024).

How the values were obtained:
muscle [1] = conditions: administering to an individual
Excerpt: The dosing schedule that has been preferred for such administration (i.e., 8 times daily), however, leads to compliance issues and problems with paraesthesia. Thus, there is a need for improved supplements containing free beta-alanine or a biological source thereof in a sustained release formulation to increase compliance and decrease paraesthesia events.
During sustained intensive exercise or exercise sustained under conditions of local hypoxia, the accumulation of hydronium ions formed during glycolysis and the accumulation of lactate due to anaerobic metabolism can severely reduce the intracellular pH. The reduced pH can compromise the function of the creatine-phosphorylcreatine system. The decline in intracellular pH also can affect other functions within the cells such as the function of the contractile proteins in muscle fibers.

[2] = Paraesthesia symptoms after ingesting edible gel or beta-alanine dissolved in water (Example 1); type: in vivo, human; conditions: 2 g beta-alanine ingested; following 20 minutes
Method: To prepare an edible gel containing free beta-alanine the contents of two packets of commercially available strawberry flavored gelatin gel were dissolved in 200 ml of boiling water. The contents were stirred continuously until the gel was completely dissolved. The gel was further fortified with the addition of a sachet of gelatin capsules. To this was added 80 g free beta-alanine (in a final volume of approximately 300 ml). The concentrated gel solution was poured into a 12×12 cm flat mould to a depth of approximately 2 cm and allowed to set to a stiff gel at 4° C. One square piece of gel (approximately 2×2×2 cm in size) contained approximately 2 g of beta-alanine.
In contrast, symptoms of paraesthesia were detected in subjects that ingested 2 g free beta-alanine dissolved in water. Thus the sustained release of free beta-alanine mitigates the symptoms of paraesthesia that are felt when equivalent amounts are administered in a single bolus dose.

[3] = bolus single dose of 2-6 grams
[4] = Paraesthesia symptoms, drink versus delayed release capsules (Example 3); type: in vivo, human; conditions: 1.75 g beta-alanine; two subjects
Excerpt: Two subjects were given 1.75 g beta-alanine dissolved in water (formulated as a drink) or 5 capsules, each containing 0.35 g beta-alanine in a delayed release formulation.

muscle [5] = conditions: following administration (supplementation); previous work; cited from earlier work

symptoms of paraesthesia [2]: detected
paraesthesia [3]: results in paraesthesia
Compound: NCCC(=O)O [beta-alanine]
muscle beta-alanylhistidine peptide levels (muscle [1]): elevated
total work capacity of the muscle (muscle [1]): increased
symptoms of paraesthesia [4]: reported symptoms of paraesthesia affecting the face, scalp, neck, arms, hands and buttocks
carnosine in muscle (muscle [5]): significantly increased
